# Columns and labels:
# Type in all cases: in vivo
# [1] = system: wheat (winter wheat, Triticum aestivum); assay: Test C postemergence, plant response rating; conditions: Triticum aestivum, post-emergence
# In short: (§1)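 Preemergence: seeds sown in loam–sand blend or silt loam and sprayed with test chemicals in a non-phytotoxic surfactant-containing solvent. Postemergence: potted plants at 2–18 cm (1–4-leaf stage) sprayed with the same formulation. After 13–15 d in greenhouse, visual rating versus controls on 0 (no effect) to 100 (complete control) scale.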
# [2] = system: crabgrass, large (large crabgrass, Digitaria sanguinalis); assay: Test C postemergence, plant response rating; conditions: Digitaria sanguinalis, post-emergence
# In short: as §1
# corn (Zea mays) = assay: Test C postemergence, plant response rating; conditions: Zea mays, post-emergence
# In short: as §1
# [3] = system: barnyardgrass (Echinochloa crus-galli); assay: Test C postemergence, plant response rating; conditions: Echinochloa crus-galli, post-emergence
# In short: as §1
# [4] = system: galium (catchweed bedstraw, Galium aparine); assay: Test C postemergence, plant response rating; conditions: Galium, post-emergence
# In short: as §1
# [5] = system: blackgrass (Alopecurus myosuroides); assay: Test C postemergence, plant response rating; conditions: Alopecurus myosuroides, post-emergence
# In short: as §1
# [6] = system: oilseed rape (Brassica napus); assay: Test C postemergence, plant response rating; conditions: Brassica napus, post-emergence
# In short: as §1
# [7] = system: nutsedge, yellow (yellow nutsedge, Cyperus esculentus); assay: Test C postemergence, plant response rating; conditions: Cyperus, post-emergence
# In short: as §1
# kochia (Kochia scoparia) [8] = assay: Test C postemergence, plant response rating; conditions: Bassia scoparia, post-emergence
# In short: as §1
# [9] = system: morningglory (Ipomoea coccinea); assay: Test C postemergence, plant response rating; conditions: Ipomoea, post-emergence
# In short: as §1
# [10] = system: barnyardgrass (Echinochloa crus-galli); assay: Test A preemergence, visual injury rating; conditions: Echinochloa crus-galli, pre-emergence, 240 h, 0 to 100 scale (0 no effect, 100 complete control), read-out: Barnyardgrass plant response rating
# In short: (§2)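 Visual 0–100 rating (100 = complete control) taken about 10 d post-treatment relative to untreated checks. Preemergence: directed soil spray on sown loam/sand pots. Postemergence: seedlings 2–10 cm, 1–2 leaf. Non-phytotoxic solvent formulation with surfactant.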
# [11] = system: pigweed (Amaranthus retroflexus); assay: Test A preemergence, visual injury rating; conditions: Amaranthus retroflexus, pre-emergence, 240 h, 0 to 100 scale (0 no effect, 100 complete control), read-out: Pigweed plant response rating
# In short: as §2
# [12] = system: giant foxtail (Setaria faberii); assay: Test A preemergence, visual injury rating; conditions: Setaria faberi, pre-emergence, 240 h, 0 to 100 scale (0 no effect, 100 complete control), read-out: Foxtail, Giant plant response rating
# In short: as §2
# [13] = system: Italian ryegrass (Lolium multiflorum); assay: Test A preemergence, visual injury rating; conditions: Lolium multiflorum, pre-emergence, 240 h, 0 to 100 scale (0 no effect, 100 complete control), read-out: Ryegrass, Italian plant response rating
# In short: as §2
# [14] = system: ragweed (common ragweed, Ambrosia elatior); assay: Test A preemergence, visual injury rating; conditions: Ambrosia artemisiifolia, pre-emergence, 240 h, 0 to 100 scale (0 no effect, 100 complete control), read-out: Ragweed plant response rating
# In short: as §2
# kochia (Kochia scoparia) [15] = assay: Test A preemergence, visual injury rating; conditions: Bassia scoparia, pre-emergence, 240 h, 0 to 100 scale (0 no effect, 100 complete control), read-out: Kochia plant response rating
# In short: as §2
# [16] = system: barnyardgrass (Echinochloa crus-galli); assay: Test B flooded paddy test, plant response rating; conditions: Echinochloa crus-galli, 312 h; 250 g ai/ha; Flood; scale of 0 to 100 where 0 is no effect and 100 is complete control; 13 to 15 days
# In short: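 Pots were flooded to 3 cm above the soil surface at treatment, compound applied directly to the paddy water, and that depth held throughout. Plants were kept in a greenhouse for 13 to 15 days, then visually rated against untreated controls.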
# [17] = 125 g ai/ha, scale 0 to 100 (0 no effect, 100 complete control)
# [18] = 62 g ai/ha, scale 0 to 100 (0 no effect, 100 complete control)
structure (smiles),measurement,setting,value
"C=CCOC(=O)c1c(Br)cccc1Oc1ncc(Cl)cn1 [Compound 22, 2-propen-1-yl 2-bromo-6-[(5-chloro-2-pyrimidinyl)oxy]benzoate]",plant injury at 16 g/ha,"[1]; 16 g ai/ha, scale 0 to 100",0%
same,plant injury at 31 g/ha,"[1]; 31 g ai/ha, scale 0 to 100",0%
same,plant injury at 62 g/ha,"[1]; 62 g ai/ha, scale 0 to 100 (0 no effect, 100 complete control), read-out: Wheat plant response rating",0%
same,plant injury at 125 g/ha,[1]; [17],0%
same,pest or weed control at 16 g/ha,"[2]; 16 g ai/ha, scale 0 to 100",10%
same,pest or weed control at 31 g/ha,"[2]; 31 g ai/ha, scale 0 to 100",15%
same,pest or weed control at 62 g/ha,[2]; [18],25%
same,pest or weed control at 125 g/ha,[2]; [17],25%
same,"Corn plant response rating (crop injury, 0 = no effect, 100 = complete kill) at 16 g/ha","corn (Zea mays); 16 g ai/ha, scale 0 to 100",5%
same,"Corn plant response rating (crop injury, 0 = no effect, 100 = complete kill) at 31 g/ha","corn (Zea mays); 31 g ai/ha, scale 0 to 100",5%
same,plant injury at 62 g/ha,corn (Zea mays); [18],5%
same,plant injury at 125 g/ha,corn (Zea mays); [17],15%
same,pest or weed control at 16 g/ha,"[3]; 16 g ai/ha, scale 0 to 100",5%
same,pest or weed control at 31 g/ha,"[3]; 31 g ai/ha, scale 0 to 100",5%
same,pest or weed control at 62 g/ha,[3]; [18],10%
same,pest or weed control at 125 g/ha,[3]; [17],10%
same,pest or weed control at 16 g/ha,"[4]; 16 g ai/ha, scale 0 to 100",10%
same,pest or weed control at 31 g/ha,"[4]; 31 g ai/ha, scale 0 to 100",25%
same,pest or weed control at 62 g/ha,[4]; [18],60%
same,pest or weed control at 125 g/ha,[4]; [17],70%
same,pest or weed control at 16 g/ha,"[5]; 16 g ai/ha, scale 0 to 100",0%
same,pest or weed control at 31 g/ha,"[5]; 31 g ai/ha, scale 0 to 100",0%
same,pest or weed control at 62 g/ha,[5]; [18],0%
same,pest or weed control at 125 g/ha,[5]; [17],5%
same,plant injury at 16 g/ha,"[6]; 16 g ai/ha, scale 0 to 100",35%
same,plant injury at 31 g/ha,"[6]; 31 g ai/ha, scale 0 to 100",40%
same,plant injury at 62 g/ha,[6]; [18],55%
same,plant injury at 125 g/ha,[6]; [17],80%
same,pest or weed control at 16 g/ha,"[7]; 16 g ai/ha, scale 0 to 100",0%
same,pest or weed control at 31 g/ha,"[7]; 31 g ai/ha, scale 0 to 100",0%
same,pest or weed control at 62 g/ha,[7]; [18],5%
same,pest or weed control at 125 g/ha,[7]; [17],5%
same,pest or weed control at 16 g/ha,"kochia (Kochia scoparia) [8]; 16 g ai/ha, scale 0 to 100",50%
same,pest or weed control at 31 g/ha,"kochia (Kochia scoparia) [8]; 31 g ai/ha, scale 0 to 100",80%
same,pest or weed control at 62 g/ha,kochia (Kochia scoparia) [8]; [18],85%
same,pest or weed control at 125 g/ha,kochia (Kochia scoparia) [8]; [17],50%
same,pest or weed control at 16 g/ha,"[9]; 16 g ai/ha, scale 0 to 100",5%
same,pest or weed control at 31 g/ha,"[9]; 31 g ai/ha, scale 0 to 100",10%
same,pest or weed control at 62 g/ha,[9]; [18],35%
same,pest or weed control at 125 g/ha,[9]; [17],50%
same,pest or weed control at 125 g/ha,[10]; 125 g ai/ha,40%
same,pest or weed control at 500 g/ha,[10]; 500 g ai/ha,100%
same,pest or weed control at 125 g/ha,[11]; 125 g ai/ha,100%
same,pest or weed control at 500 g/ha,[11]; 500 g ai/ha,100%
same,pest or weed control at 125 g/ha,[12]; 125 g ai/ha,100%
same,pest or weed control at 500 g/ha,[12]; 500 g ai/ha,100%
same,pest or weed control at 125 g/ha,[13]; 125 g ai/ha,30%
same,pest or weed control at 500 g/ha,[13]; 500 g ai/ha,90%
same,pest or weed control at 125 g/ha,[14]; 125 g ai/ha,0%
same,pest or weed control at 500 g/ha,[14]; 500 g ai/ha,0%
same,pest or weed control at 125 g/ha,kochia (Kochia scoparia) [15]; 125 g ai/ha,30%
same,pest or weed control at 500 g/ha,kochia (Kochia scoparia) [15]; 500 g ai/ha,100%
same,pest or weed control at 250 g/ha,[16],0%

# From US11053204B2, “Pyrimidinyloxy benzene derivatives as herbicides” (FMC Corporation, priority 2015, dated 2021)
